The subject of assay [1] is HCV genotype 1b replicon. The assay is described as follows: HCV genotype 1b replicon assay (Renilla luciferase readout). The format is cell-based, hepatitis C virus. Conditions: for EC50: Hepatitis C virus, read-out: Genotype 1b; for Genotype 1b: HCV genotype 1b replicon. From the text: Assay 1: HCV Genotype 1b Replicon Assay
The HCV genotype 1b replicon cell line was obtained from Apath LLC (Brooklyn, N.Y.) (APC144; Huh7 cell background). This subgenomic replicon contains the N-terminus of the HCV core protein fused to the neomycin-resistance selectable marker. The EMCV IRES lies downstream and drives expression of humanized Renilla luciferase fused to the non-structural proteins NS3-NS5B. This cell line was used to determine compound potency using the luciferase activity readout as a measurement of compound inhibition of replicon levels.
Cells were grown at 37° C. in a 5% CO2 humidified incubator in DMEM (Invitrogen) with 10% FBS (HyClone), 1×NEAA (Invitrogen), 1× Pen-Strep (Invitrogen), and 500 μg/mL G418 (Invitrogen). On day 1 of the assay, cells were plated at 10,000 cells/well in white 96-well tissue culture plates (Costar) in 200 μL media lacking G418. Four hours later, once the cells have adhered, the media was removed and replaced with media (no G418) containing dose-responses of test compounds. Compounds were initially diluted in DMSO and then diluted another 200× in media to bring the final DMSO concentration down to 0.5%. The cells were incubated with test compounds for 48 hours. At the end of the incubation period, media and compound were removed from the plates and the luciferase activity was determined using Promega Renilla-Glo reagents.
To analyze the data, the luciferase activity was plotted vs. the compound concentration, and EC50 values were determined from a 4-parameter robust fit model with the GraphPad Prism software package (GraphPad Software, Inc., San Diego, Calif.). Results are expressed as the negative decadic logarithm of the EC50 value, pEC50.
Test compounds having a higher pEC50 value in this assay show greater inhibition of HCV genotype 1b replication.
(A replicon is a self-replicating genome or part of one, used to study replication in cells.)

The test system of assay [2] is HCV genotype 1a replicon. The assay is described as follows: HCV genotype 1a replicon assay (NS3 protease activity readout). The format is cell-based, hepatitis C virus. Conditions: for EC50: Hepatitis C virus, read-out: Genotype 1a, HCV genotype 1a replicon; for Genotype 1a: HCV genotype 1a replicon. In a few lines:
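EC50 values came from a 4-parameter robust fit of fluorescence (ex 340, em 509 nm) produced by NS3-specific protease in lysates, assayed with 15 μM FRET substrate for 20 min at 37° C, after 48 or 72 hours of compound exposure (0.5% DMSO) of Huh7.5-derived APC89 genotype 1a replicon cells.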

The text below walks through data of patent US9212168B2 (priority 2011, dated 2015).

SMILES strings stand for the structures. Where only a bound is given, the exact number is not on record here.

As for `COC(=O)N[C@H](C(=O)N1C[C@@H](C)C[C@H]1c1nc(-c2ccc(-c3cc(F)c(NC(=O)c4ccc(N5CCN(C(=O)C(C)(C)C)C[C@H]5C)nc4)cc3OC(F)(F)F)cc2)c[nH]1)[C@H](C)OC` [Example 13-21], the EC50 in assay [1] and in assay [2] was less than 0.1 nM in each case.

Take `COCC(=O)N1CCC[C@@]1(C)C(=O)N1CCN(c2ccc(NC(=O)c3ccc(-c4ccc(-c5c[nH]c([C@@H]6C[C@H](C)CN6C(=O)[C@@H](NC(=O)OC)C(C)C)n5)cc4)c(OC(F)(F)F)c3)cn2)[C@H](C)C1` [Example 4-4]: the “Genotype 1b” value in assay [1] is given as “D (D represents pEC50>10 (EC50<0.1 nM))”. Further, the “Genotype 1a” value in assay [2] is “D (D represents pEC50>10 (EC50<0.1 nM))”.

Turning to `COC(=O)N[C@H](C(=O)N1C[C@@H](C)C[C@H]1c1nc(-c2ccc(-c3cc(Cl)c(NC(=O)c4ccc(N5CCN(C(=O)C(C)(C)C)C[C@H]5C)nc4)cc3C(F)(F)F)cc2)c[nH]1)C1CCOCC1` [Example 19-2], the “Genotype 1b” value in assay [1] is listed as “D (D represents pEC50>10 (EC50<0.1 nM))”. Besides, the “Genotype 1a” value in assay [2] is recorded as “D (D represents pEC50>10 (EC50<0.1 nM))”.

On to `COC(=O)N[C@H](C(=O)N1C[C@@H](C)C[C@H]1c1nc(-c2ccc(-c3cc(Cl)c(C(=O)Nc4ccc(N5CCN(C(=O)C(C)(C)C)[C@H](C)C5)nc4)cc3OC(F)(F)F)cc2)c[nH]1)C1CCOCC1` [24-3], for which the “Genotype 1b” value in assay [1] is recorded as “D (D represents pEC50>10 (EC50<0.1 nM))”. Further, the “Genotype 1a” value in assay [2] was “C (C represents pEC50 between and 9 and about 10, (EC50 between 1 nM and 0.1 nM))”.

Regarding `COC(=O)N[C@H](C(=O)N1C[C@@H](C)C[C@H]1c1nc(-c2ccc(-c3cc(F)c(NC(=O)c4ccc(N5CCN(C(=O)[C@H]6CC6(C)C)C[C@H]5C)nc4)cc3F)cc2)c[nH]1)C(C)C` [Example 1-81], the “Genotype 1b” value in assay [1] was “D (D represents pEC50>10 (EC50<0.1 nM))”. In assay [2], the “Genotype 1a” value is “D (D represents pEC50>10 (EC50<0.1 nM))”.

Turning to `COC(=O)N[C@H](C(=O)N1C[C@@H](C)C[C@H]1c1nc(-c2ccc(-c3ccc(C(=O)Nc4ccc(N5C[C@H](C)N(C(=O)[C@H]6CC6(C)C)C[C@H]5C)nc4)cc3OC(F)(F)F)cc2)c(Cl)[nH]1)C(C)C` [Example 4-10], the “Genotype 1b” value in assay [1] was “D (D represents pEC50>10 (EC50<0.1 nM))”. For the same molecule, the “Genotype 1a” value in assay [2] is “D (D represents pEC50>10 (EC50<0.1 nM))”.

As to `COC(=O)NC(C(=O)N1C[C@@H](C)C[C@H]1c1nc(-c2ccc(-c3cc(Cl)c(NC(=O)c4ccc(N5CCN(C(=O)C(C)(C)C)C[C@H]5C)nc4)cc3OC(F)(F)F)cc2)c[nH]1)C1CCC(=O)CC1` (stereo partly shown) [Example 13-35], the EC50 in assay [1] and in assay [2] was less than 0.1 nM in each case.

As for `COC(=O)N[C@H](C(=O)N1C[C@@H](C)C[C@H]1c1nc(-c2ccc(-c3ccc(C(=O)Nc4ccc(N5CCN(C(=O)[C@]6(C)CCCN6C(=O)[C@H](NC(=O)OC)C(C)C)C[C@H]5C)nc4)cc3OC(F)(F)F)cc2)c[nH]1)C(C)C` [Example 4-7], the “Genotype 1b” value in assay [1] was “D (D represents pEC50>10 (EC50<0.1 nM))”. Also, the “Genotype 1a” value in assay [2] was “D (D represents pEC50>10 (EC50<0.1 nM))”.

For `COC(=O)N[C@H](C(=O)N1C[C@@H](C)C[C@H]1c1nc(-c2ccc(-c3cc(F)c(NC(=O)c4ccc(N5CCN(C(=O)[C@H]6CC6(C)C)C[C@H]5C)nc4)cc3C(F)(F)F)cc2)c[nH]1)C(C)C` [Example 1-5], the “Genotype 1b” value in assay [1] was “D (D represents pEC50>10 (EC50<0.1 nM))”. In addition, the “Genotype 1a” value in assay [2] is “D (D represents pEC50>10 (EC50<0.1 nM))”.

Turning to `COC(=O)N[C@H](C(=O)N1C[C@@H](N(C)C)C[C@H]1c1nc(-c2ccc(-c3ccc(NC(=O)c4ccc(N5CCN(C(=O)[C@]6(C)CCCN6C(C)=O)C[C@H]5C)nc4)cc3)cc2)c[nH]1)C(C)C` [Example 2-2], in assay [1], the “Genotype 1b” value was “C (C represents pEC50 between and 9 and about 10, (EC50 between 1 nM and 0.1 nM))”. Moreover, in assay [2], the “Genotype 1a” value was “C (C represents pEC50 between and 9 and about 10, (EC50 between 1 nM and 0.1 nM))”.

Consider `COC(=O)N[C@H](C(=O)N1C[C@@H](C)C[C@H]1c1nc(-c2ccc(-c3cc(Cl)c(NC(=O)c4ccc(N5CCN(C(=O)NC(C)(C)C)C[C@H]5C)nc4)cc3OC(F)(F)F)cc2)c[nH]1)C(C)C` [Example 12-24], for which the EC50 in assay [1] and in assay [2] was less than 0.1 nM throughout.

On to `COCC(=O)N1CCC[C@@]1(C)C(=O)N1C[C@@H](C)N(c2ccc(C(=O)Nc3cc(OC(F)(F)F)c(-c4ccc(-c5c[nH]c([C@@H]6C[C@H](OC)CN6C(=O)[C@@H](NC(=O)OC)C6CCOCC6)n5)cc4)cc3Cl)cn2)C[C@@H]1C` [Example 28-17], for which the “Genotype 1b” value in assay [1] was “D (D represents pEC50>10 (EC50<0.1 nM))”. Further, in assay [2], the “Genotype 1a” value is recorded as “D (D represents pEC50>10 (EC50<0.1 nM))”.

`COC(=O)N[C@H](C(=O)N1C[C@@H](C)C[C@H]1c1nc(-c2ccc(-c3cc(Cl)c(C(=O)Nc4ccc(N5CCN(C(=O)[C@H]6CC6(C)C)C[C@H]5C)nc4)cc3OC(F)(F)F)cc2)c[nH]1)C1CCOCC1` [Example 22-5]: the “Genotype 1b” value in assay [1] is on record as “D (D represents pEC50>10 (EC50<0.1 nM))”. For the same molecule, the “Genotype 1a” value in assay [2] was “D (D represents pEC50>10 (EC50<0.1 nM))”.

`COC(=O)N[C@H](C(=O)N1C[C@@H](N(C)C)C[C@H]1c1nc(-c2ccc(-c3ccc(NC(=O)c4ccc(N5CCN(C(=O)c6c[nH]cn6)C[C@H]5C)nc4)cc3)cc2)c[nH]1)C(C)C` [Example 2-1]: the “Genotype 1b” value in assay [1] is given as “D (D represents pEC50>10 (EC50<0.1 nM))”. The “Genotype 1a” value in assay [2] is “C (C represents pEC50 between and 9 and about 10, (EC50 between 1 nM and 0.1 nM))”.

Take `COC(=O)N[C@H](C(=O)N1C[C@@H](C)C[C@H]1c1nc(-c2ccc(-c3cc(F)c(NC(=O)c4ccc(N5CCN(C(=O)C(C)(C)C)C[C@H]5C)nc4)cc3OC(F)(F)F)cc2)c[nH]1)C(C)(C)O` [Example 13-24]: the EC50 in assay [1] and in assay [2] was less than 0.1 nM in each case.

As to `COC(=O)N[C@H](C(=O)N1C[C@@H](OC)C[C@H]1c1nc(-c2ccc(-c3cc(F)c(NC(=O)c4ccc(N5CCN(C(=O)C(C)(C)CO)C[C@H]5C)nc4)cc3OC(F)(F)F)cc2)c[nH]1)C1CCOCC1` [Example 28-3], the “Genotype 1b” value in assay [1] is “D (D represents pEC50>10 (EC50<0.1 nM))”. Moreover, the “Genotype 1a” value in assay [2] was “D (D represents pEC50>10 (EC50<0.1 nM))”.

Consider `COC(=O)NC(C(=O)N1CC(OC)CC1c1nc(-c2ccc(-c3cc(F)c(NC(=O)c4ccc(N5CCN(C(=O)C(C)(C)C)CC5C)nc4)cc3OC(F)(F)F)cc2)c[nH]1)C(C)OC` (stereo not shown) [Example 16-5], for which, in assay [1], the “Genotype 1b” value is on record as “D (D represents pEC50>10 (EC50<0.1 nM))”. Also, the “Genotype 1a” value in assay [2] is reported as “D (D represents pEC50>10 (EC50<0.1 nM))”.

As for `COC(=O)N[C@H](C(=O)N1CC2(C[C@H]1c1nc(-c3ccc(-c4ccc(C(=O)Nc5ccc(N6CCN(C(=O)C7CC7(C)C)C[C@H]6C)nc5)cc4)cc3)c[nH]1)OCCO2)C(C)C` (stereo partly shown) [Example 6-1], the figures for the EC50 in assay [1] and in assay [2] were less than 0.1 nM and 0.1 to 1 nM, respectively.

With `CCC(=O)N1CCC[C@@H]1C(=O)N1C[C@@H](C)N(c2ccc(NC(=O)c3ccc(-c4ccc(-c5c[nH]c([C@@H]6C[C@H](C)CN6C(=O)[C@@H](NC(=O)OC)C(C)C)n5)cc4)c(OC(F)(F)F)c3)cn2)C[C@@H]1C` [Example 4-21], in assay [1], the “Genotype 1b” value is reported as “D (D represents pEC50>10 (EC50<0.1 nM))”. In addition, the “Genotype 1a” value in assay [2] is given as “D (D represents pEC50>10 (EC50<0.1 nM))”.

Turning to `COC(=O)N[C@H](C(=O)N1C[C@@H](OC)C[C@H]1c1nc(-c2ccc(-c3cc(Cl)c(NC(=O)c4ccc(N5C[C@H](C)N(C(=O)[C@]6(C)CCCN6C(=O)OC)C[C@H]5C)nc4)cc3OC(F)(F)F)cc2)c[nH]1)C1CCOCC1` [Example 28-18], the “Genotype 1b” value in assay [1] was “D (D represents pEC50>10 (EC50<0.1 nM))”. In assay [2], the “Genotype 1a” value is listed as “D (D represents pEC50>10 (EC50<0.1 nM))”.

Regarding `COCC(=O)N1CCC[C@@]1(C)C(=O)N1C[C@@H](C)N(c2ccc(NC(=O)c3ccc(-c4ccc(-c5c[nH]c([C@@H]6C[C@H](C)CN6C(=O)[C@@H](NC(=O)OC)C(C)C)n5)cc4)c(OC(F)(F)F)c3)cn2)C[C@@H]1C` [Example 4-8], in assay [1], the “Genotype 1b” value is recorded as “D (D represents pEC50>10 (EC50<0.1 nM))”. Further, the “Genotype 1a” value in assay [2] was “D (D represents pEC50>10 (EC50<0.1 nM))”.

For `COC(=O)NC(C(=O)N1CC(C)CC1c1nc(-c2ccc(-c3ccc(NC(=O)c4ccc(N5CCN(C(=O)C(C)(C)CO)CC5C)nc4)cc3OC(F)(F)F)cc2)c[nH]1)C(C)OC` (stereo not shown) [Example 13-31], the “Genotype 1b” value in assay [1] is reported as “D (D represents pEC50>10 (EC50<0.1 nM))”. Also, the “Genotype 1a” value in assay [2] is recorded as “D (D represents pEC50>10 (EC50<0.1 nM))”.

Regarding `COC(=O)N[C@H](C(=O)N1C[C@@H](C)C[C@H]1c1nc(-c2ccc(-c3ccc(C(=O)Nc4ccc(N5CCN(C(=O)C(C)(C)C)C[C@H]5C)nc4)cc3OC(F)(F)F)cc2)c[nH]1)C1CCOCC1` [Example 22-3], in assay [1], the “Genotype 1b” value is on record as “D (D represents pEC50>10 (EC50<0.1 nM))”. In addition, the “Genotype 1a” value in assay [2] is on record as “D (D represents pEC50>10 (EC50<0.1 nM))”.
